Laboratory results reported in patent US6017933A, “Mannich bases of conjugated styryl ketones” (University of Saskatchewan Technologies Inc., priority 1999, dated 2000).
Values after ≈ are worked out from the molar mass of the structure shown. “Also recorded” adds a separate entry of the source. Read-outs that look alike come from different tables or passages of the source.

Key:
[1] = tested on: P388 lymphocytic leukemia; settings: 20 mg/kg intraperitoneally for five days; cited from earlier work
P388 cells = experiment: Cytotoxicity, murine P388 leukemic cells (P388 D1); settings: for IC50: read-out: P388 cells IC50
L1210 cells = experiment: Cytotoxicity, murine L1210 leukemic cells; format: cell-based; settings: Mus musculus, mean
human tumors [2] = tested on: human tumors
Molt 4/C8 cells = experiment: Cytotoxicity, Molt 4/C8 human T-lymphocytes; settings: for TIL1210 (Molt 4/C8 cells): IC50 T-lymphocytes (Molt 4/C8)/IC50 L1210; for TIP388 (Molt 4/C8 cells): IC50 T-lymphocytes (Molt 4/C8)/IC50 P388; for TIht (Molt 4/C8 cells): IC50 T-lymphocytes (Molt 4/C8)/IC50 human tumors; for IC50: read-out: Molt 4/C8 cells IC50
CEM cells = experiment: Cytotoxicity, CEM human T-lymphocytes; settings: for IC50: Homo sapiens, CCRF-CEM, read-out: CEM cells IC50; for TIL1210 (CEM cells): IC50 T-lymphocytes (CEM)/IC50 L1210; for TIP388 (CEM cells): IC50 T-lymphocytes (CEM)/IC50 P388; for TIht (CEM cells): IC50 T-lymphocytes (CEM)/IC50 human tumors
human tumors [3] = experiment: Cytotoxicity, human tumor cell line panel (approximately 55 lines); settings: for IC50: read-out: human tumors IC50, mean graph midpoint, approximately 55 cell lines, hydrobromide salts used for 4a, 11a-e
COLO 205 [4] = settings: in vivo; cited from earlier work
SW-620 = settings: in vivo; cited from earlier work
CAKI-1 [5] = settings: in vivo; cited from earlier work
LOX IMVI = settings: in vivo; cited from earlier work
NCI-H522 = settings: in vivo; cited from earlier work
[6] = tested on: Aspergillus fumigatus conidia; experiment: Kill-curve experiment, Aspergillus fumigatus conidia; format: cell-based; settings: Aspergillus fumigatus; 5 μm AMB or 5 μm ITZ, within 24 hr
Description: Kill-Curve Experiment: 5 ml conidial suspension each of the AMB-, and ITZ-susceptible (W73355) and the resistant (AB16.4 and ITZ70) isolates prepared in PYG broth (1×10^6 conidia/ml) was incubated at 35° C. in the presence of 5 μm of AMB or 5 μm ITZ or 50 μm Compound 9b. At various time intervals, 0.1 ml aliquots of the conidial suspension were removed, diluted appropriately to obtain 10^2 to 10^4 fold dilution, and 0.1 ml aliquots were spread in duplicate on PYG agar plates. […] Identical treatment of the conidial suspension in the absence of the drug was used as the growth control.

Aspergillus fumigatus [7] = experiment: MIC and MLC, Aspergillus fumigatus, broth macrodilution; settings: Aspergillus fumigatus, 48 h
[8] = tested on: ITZ-resistant Aspergillus fumigatus; experiment: MIC and MLC, ITZ-resistant Aspergillus fumigatus, broth macrodilution; settings: 48 h
[9] = tested on: AMB-resistant Aspergillus fumigatus; experiment: MIC and MLC, AMB-resistant Aspergillus fumigatus, broth macrodilution; settings: 48 h
[10] = tested on: P388 lymphocytic leukemia; experiment: Murine P388 lymphocytic leukemia in vivo screen
Description: In order to evaluate whether these promising results could be translated into in vivo activity, two representative compounds 9d and 10a were chosen. […] These two compounds were examined in the murine P388 screen and against certain human tumors in athymic mice.
(§1) The compounds were examined by the Developmental Therapeutics Program, National Cancer Institute, U.S.A. The murine P388 lymphocytic leukemia assay was conducted by a reported known method and the maximum ILS figures for 9d and 10a were 5 and 20% respectively using doses of 54 and 6.7 mg/kg respectively. An increase of 20% or more in the life spans is considered to be statistically significant. A reference drug 5-fluorouracil has an ILS of >35 using a dose of 20 mg/kg when given intraperitoneally for five days. Passage of human tumors in athymic mice was undertaken by a known method. No definitions of activity are available but as a general rule compounds causing a 60% reduction in tumor weights in one of these screens would be evaluated further.

COLO 205 [11] = experiment: COLO 205 human colon tumor xenograft in athymic mice; format: in vivo; settings: COLO 205; 16.8 mg/kg
Description: as §1

CAKI-1 [12] = experiment: CAKI-1 human renal tumor xenograft in athymic mice; format: in vivo; settings: 16.8 mg/kg
Description: as §1

KM12 = KM12 human colon tumor xenograft in athymic mice; format: in vivo
Description: as §1

Candida albicans = settings: C. albicans; cited from earlier work
human Jurkat T cells [13] = experiment: Apoptosis, fluorescence microscopy with acridine orange and ethidium bromide
human Jurkat T cells [14] = experiment: Growth inhibition of Jurkat T cells, trypan blue exclusion test; format: cell-based; settings: 48 h, read-out: growth of Jurkat T cells inhibited by 50% (IC50)
Description: All cell cultures used were maintained in RPMI 1640 medium, pH 7.4 supplanted with 10% fetal bovine serum and 50 μg/ml of gentamycin in 25 ml culture flasks at 37° C. in a humidified gas mixture of 5% carbon dioxide balanced with air and were passaged three times a week.
Cell viability was determined by the trypan blue exclusion test according to a literature procedure (Duke and Cohen, 1992). […] A flask containing ~10^6 cells/ml and 8 or […] of DMSO was used as the control. […] After 48 hours, cells were counted using a haemocytometer. The percentage of growth inhibition was calculated as follows: (C-T/C)×100 where C is the mean cell number in the control and T is the mean cell number in each treatment. […] All experiments were performed in triplicate.

human Jurkat T cells [15] = experiment: DNA fragmentation by agarose gel electrophoresis; format: cell-based; settings: Compound 9d 6 and 10 μM; melphalan 10 μM
Aspergillus fumigatus [16] = experiment: Murine pulmonary aspergillosis model; format: in vivo, Aspergillus fumigatus in DBA/2J female mice; settings: 2 mg/kg/day
Description: In vivo susceptibility studies: DBA/2J female mice (Jackson Laboratories) weighing 20-23 grams (≈6 weeks old) were used. The mice were immunosuppressed by 3 consecutive subcutaneous injections (0.5 ml each) of cortisone acetate (250 mg/kg; Sigma Chemical Company) in sterile distilled water containing 0.1% Tween 80. The immunosuppressed mice were anesthetized by exposing to ether in a desiccator for 45±5 seconds and infected with 20 μl inoculum containing 1×10^6 conidia delivered to the nares of the animals as a single droplet from a micropipet. Compound 9b and AMB were dissolved in dimethyl sulfoxide (DMSO) and administered 24 hr post infection by intraperitoneal injection in 0.2 ml PBS per dose. […] The efficacy of chemotherapy was assessed by determining percent survival and the fungal load (CFU/lungs) of infected animals as determined by semiquantitative organ culture.

O=c1[nH]cc(F)c(=O)[nH]1 [5-fluorouracil]
ILS, murine P388 (reference drug) [1]: > 35

CC[N+]1(C)CCC(O)(/C=C/c2ccc(Cl)c(Cl)c2)C(C(=O)/C=C/c2ccc(Cl)c(Cl)c2)C1 (stereo not shown) [Compound 10c]
IC50 (P388 cells): 0.64 µM
IC50 (L1210 cells): 21.4 µM
activity relative to compound 12c, human tumors (human tumors [2]): 4.36 times
TIL1210 (Molt 4/C8 cells) (Molt 4/C8 cells): 1.12
TIP388 (Molt 4/C8 cells) (Molt 4/C8 cells): 37.56
TIht (Molt 4/C8 cells) (Molt 4/C8 cells): 10.98
IC50 (Molt 4/C8 cells): 24 µM
IC50 (CEM cells): 16.5 µM
TIL1210 (CEM cells) (CEM cells): 0.77
TIP388 (CEM cells) (CEM cells): 25.78
TIht (CEM cells) (CEM cells): 7.53
IC50 (human tumors [3]): 2.19 µM

O=P1(N(CCCl)CCCl)NCCCO1 (stereo not shown) [cyclophosphamide]
activity towards COLO 205 xenograft (COLO 205 [4]): inactive
activity towards SW-620 xenograft (SW-620): inactive
reduction of growth of CAKI-1 tumor (CAKI-1 [5]): 60-100%
reduction of growth of LOX IMVI tumor (LOX IMVI): 100-150%
activity towards NCI-H522 xenograft (NCI-H522): inactive

CCC(C)n1ncn(-c2ccc(N3CCN(c4ccc(OCC5COC(Cn6cncn6)(c6ccc(Cl)cc6Cl)O5)cc4)CC3)cc2)c1=O (stereo not shown) [Itraconazole]
killing at 5 µM [6]: 85%
MIC (Aspergillus fumigatus [7]; read-out: MIC Mean ± SD): 0.53 ± 0.16 µM (≈ 0.374 µg/mL)
MIC (Aspergillus fumigatus [7]; read-out: MIC Range): 0.18 to 0.72 µM (≈ 0.127 to 0.508 µg/mL)
MIC ([8]; read-out: MIC Mean ± SD): 17.2 ± 5.83 µM (≈ 12.2 µg/mL)
MIC ([8]; read-out: MIC Range): 5.19 to 20.8 µM (≈ 3.66 to 14.7 µg/mL)
MIC ([9]; read-out: MIC Mean ± SD): 0.82 ± 0.35 µM (≈ 0.579 µg/mL)
MIC ([9]; read-out: MIC Range): 0.32 to 1.29 µM (≈ 0.226 to 0.91 µg/mL)

CC[N+]1(C)CCC(O)(/C=C/c2ccccc2)C(C(=O)/C=C/c2ccccc2)C1 (stereo not shown) [Compound 10a]
IC50 (P388 cells): 2.27 µM
maximum ILS / increase in life span, murine P388 ([10]; 6.7 mg/kg): 20%
activity in the murine P388 screen ([10]; in words): marginal potency
% ILS (COLO 205 [11]): 14%
percent reduction in median tumor weight (COLO 205 [11]): 20%
% ILS (CAKI-1 [12]): 6%
% T/C (CAKI-1 [12]): 43%
Selective toxicity towards leukemia (human tumors [3]; human tumor screen): Selective toxicity towards leukemia was observed; also recorded: preferential cytotoxicity to colon and leukemic cells respectively
IC50 (human tumors [3]): 8.31 µM
% T/C (KM12; 16.8 mg/kg): 45%
% ILS (KM12; 25 mg/kg): 5%

OC(Cn1cncn1)(Cn1cncn1)c1ccc(F)cc1F [fluconazole]
mean MIC (Candida albicans): approximately 0.8 μm

CCN1CCC(O)(/C=C/c2ccc(C)c(C)c2)C(C(=O)/C=C/c2ccc(C)c(C)c2)C1 (stereo not shown) [Compound 13b]
cytotoxicity compared with compound 9d (P388 cells; Table 3 screens): comparable cytotoxicity to compound 9d
IC50 (P388 cells): 2.59 µM
IC50 (L1210 cells): 20.9 µM
TI (murine leukemia cells vs T-lymphocytes; printed TIht) compared with compound d (Molt 4/C8 cells): lower
TIht compared with compound 9d (Molt 4/C8 cells): greater than compound 9d
TIL1210 (Molt 4/C8 cells) (Molt 4/C8 cells): 0.67
TIP388 (Molt 4/C8 cells) (Molt 4/C8 cells): 5.41
IC50 (Molt 4/C8 cells): 14 ± 8.6 µM
IC50 (CEM cells): 30.8 µM
TIL1210 (CEM cells) (CEM cells): 1.47
TIP388 (CEM cells) (CEM cells): 11.89
selective/preferential cytotoxicity towards colon cancer cells (human tumors [3]; human tumor screen): neither 13a,b displayed selective toxicity for colon cancers

CCN1CCC(O)(/C=C/c2ccc(OC)cc2)C(C(=O)/C=C/c2ccc(OC)cc2)C1 (stereo not shown) [Compound 9e]
IC50 (P388 cells): 5 µM
IC50 (L1210 cells): 25.6 µM
TIL1210 (Molt 4/C8 cells) (Molt 4/C8 cells): 0.81
TIP388 (Molt 4/C8 cells) (Molt 4/C8 cells): 4.14
TIht (Molt 4/C8 cells) (Molt 4/C8 cells): 2.49
IC50 (Molt 4/C8 cells): 20.7 µM
IC50 (CEM cells): 11.7 µM
TIL1210 (CEM cells) (CEM cells): 0.46
TIP388 (CEM cells) (CEM cells): 2.35
TIht (CEM cells) (CEM cells): 1.41
Selective toxicity towards leukemia (human tumors [3]; human tumor screen): this property was also noted
IC50 (human tumors [3]): 8.31 µM

N[C@@H](Cc1ccc(N(CCCl)CCCl)cc1)C(=O)O [melphalan, reference compound]
time after which apoptotic effects were detectable (human Jurkat T cells [13]): 3 h
percentage of apoptotic cells (human Jurkat T cells [13]; 10 μM, 17 hours, control 4.4%): 24%
death of treated cells (human Jurkat T cells [13]; 48 hours): all the treated cells had died
IC50 (human Jurkat T cells [14]): 1.16 µM
TIL1210 (CEM cells) (CEM cells): 1.16
TIP388 (CEM cells) (CEM cells): 11.23
TIht (CEM cells) (CEM cells): 0.09
IC50 (human tumors [3]): 26.3 µM
DNA ladder / DNA fragmentation (human Jurkat T cells [15]): A faint DNA ladder could be seen

C[C@@H]1[C@H](O)[C@@H](C)/C=C/C=C/C=C/C=C/C=C/C=C/C=C/[C@H](O[C@@H]2O[C@H](C)[C@@H](O)[C@H](N)[C@@H]2O)C[C@@H]2O[C@](O)(C[C@@H](O)C[C@@H](O)[C@H](O)CC[C@@H](O)C[C@@H](O)CC(=O)O[C@H]1C)C[C@H](O)[C@H]2C(=O)O [Amphotericin B]
killing at 5 µM [6]: ≥ 99%
reduction of CFU/lung (Aspergillus fumigatus [16]): ≈ 66%
MIC (Aspergillus fumigatus [7]; read-out: MIC Mean ± SD): 1.32 ± 0.63 µM (≈ 1.22 µg/mL)
MIC (Aspergillus fumigatus [7]; read-out: MIC Range): 0.55 to 2.22 µM (≈ 0.508 to 2.05 µg/mL)
mean MIC (Candida albicans): ~0.6 μm
MIC ([8]; read-out: MIC Mean ± SD): 0.7 ± 0.39 µM (≈ 0.647 µg/mL)
MIC ([8]; read-out: MIC Range): 0.27 to 1.11 µM (≈ 0.25 to 1.03 µg/mL)
MIC ([9]; read-out: MIC Mean ± SD): 6.64 ± 3.47 µM (≈ 6.14 µg/mL)
MIC ([9]; read-out: MIC Range): 4.42 to 17.7 µM (≈ 4.08 to 16.4 µg/mL)
